These results are taken from ChEMBL document CHEMBL5725469, “C17-aryl substituted betulinic acid analogs” (2018).

As a reminder, the EC50 is the concentration giving half of the maximal effect.

This assay is described as follows: HIV cell culture assay: MT-2 cells and 293T cells were obtained from the NIH AIDS Research and Reference Reagent Program. MT-2 cells were propagated in RPMI 1640 media supplemented with 10% heat inactivated fetal bovine serum, 100 μg/mL penicillin G and up to 100 units/mL streptomycin. The 293T cells were propagated in DMEM media supplemented with 10% heat inactivated fetal bovine serum (FBS), 100 units/mL penicillin G and 100 μg/mL streptomycin. The proviral DNA clone of NL4-3 was obtained from the NIH AIDS Research and Reference Reagent Program. A recombinant NL4-3 virus, in which a section of the nef gene from NL4-3 was replaced with the Renilla luciferase gene, was used as a reference virus. In addition, residue Gag P373 was converted to P373S. Briefly, the recombinant virus was prepared by transfection of the altered proviral clone of NL4-3. Transfections were performed in 293T cells using LipofectAMINE PLUS from Invitrogen (Carlsbad, Calif.), according to manufacturer's instruction. The virus was titered in MT-2 cells using luciferase enzyme activity as a marker. Luciferase was quantitated using the Dual Luciferase kit from Promega (Madison, Wis.), with modifications to the manufacturer's protocol. The diluted Passive Lysis solution was pre-mixed with the re-suspended Luciferase Assay Reagent and the re-suspended Stop & Glo Substrate (2:1:1 ratio). Fifty (50) μL of the mixture was added to each aspirated well on assay plates and luciferase activity was measured immediately on a Wallac TriLux (Perkin-Elmer). Antiviral activities of inhibitors toward the recombinant virus were quantified by measuring luciferase activity in cells infected for 4-5 days with NLRluc recombinants in the presence serial dilutions of the inhibitor. The assay is classed as cell-based.

As to `C=C(C)[C@@H]1CC[C@]2(C#Cc3ccsc3-c3nnn[nH]3)CC[C@]3(C)[C@H](CC[C@@H]4[C@@]5(C)CC=C(c6ccc(C(=O)O)cc6)C(C)(C)[C@@H]5CC[C@]43C)[C@@H]12`, the EC50 is less than 0.1 µM.

With `C=C(C)[C@@H]1CC[C@]2(c3nnc(CN(C)C)o3)CC[C@]3(C)[C@H](CC[C@@H]4[C@@]5(C)CC=C(c6ccc(C(=O)O)cc6)C(C)(C)[C@@H]5CC[C@]43C)[C@@H]12`, the EC50 is greater than 0.1 µM. Under `C=C(C)[C@@H]1CC[C@]2(c3ncn(CCN4CCS(=O)(=O)CC4)n3)CC[C@]3(C)[C@H](CC[C@@H]4[C@@]5(C)CC=C(c6ccc(C(=O)O)cc6)C(C)(C)[C@@H]5CC[C@]43C)[C@@H]12` stands greater than 0.1 µM. The result for `C=C(C)[C@@H]1CC[C@]2(c3ncnn3C)CC[C@]3(C)[C@H](CC[C@@H]4[C@@]5(C)CC=C(c6ccc(C(=O)O)cc6)C(C)(C)[C@@H]5CC[C@]43C)[C@@H]12` reads greater than 0.1 µM; that for `C=C(C)[C@@H]1CC[C@]2(c3nc[nH]n3)CC[C@]3(C)[C@H](CC[C@@H]4[C@@]5(C)CC=C(c6ccc(C(=O)O)cc6)C(C)(C)[C@@H]5CC[C@]43C)[C@@H]12`, greater than 0.1 µM. Under `C=C(C)[C@@H]1CC[C@]2(c3nnco3)CC[C@]3(C)[C@H](CC[C@@H]4[C@@]5(C)CC=C(c6ccc(C(=O)O)cc6)C(C)(C)[C@@H]5CC[C@]43C)[C@@H]12` stands greater than 0.1 µM.
